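Grown in 96-well plates, cells were treated for 48 hours with each compound at five concentrations. Insufficient inhibition: endpoint recorded as highest concentration tested. GI50: concentration for 50% inhibition of growth.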 Activity calls are given as the source filed them. No stated cut-off is given here; in the data, active = GI50 up to about 1.1 µM and inactive = higher. Non-standard residues stand in square brackets, D forms with d. Residues, ends and D or L forms follow the SMILES beside them. ξ: configuration not given here. *: point of attachment. NMeY = CN[C@@H](Cc1ccc(O)cc1)C(=O)O; Cbz = O=C(OCc1ccccc1)*; ξA = CC(N)C(=O)O
Columns and labels:
Experiment in all cases: NCI anticancer screen, dose series, 48 h
[1] = system: MOLT-4
[2] = system: SW-620
[3] = system: MDA-MB-435
[4] = system: NCI-H226
[5] = system: Hs-578T
[6] = system: SF-268
[7] = system: MDA-MB-231
[8] = system: UACC-257
[9] = system: OVCAR-3
[10] = system: SF-539
[11] = system: HCC 2998
[12] = system: HCT-116
[13] = system: COLO 205
[14] = system: LOX IMVI
[15] = system: HT-29
[16] = system: A498
[17] = system: SNB-19
[18] = system: NCI/ADR-RES
[19] = system: 786-0
[20] = system: DLD-1

Structure (SMILES) | GI50 [1] | GI50 [2] | GI50 [3] | GI50 [4] | GI50 [5] | GI50 [6] | GI50 [7] | GI50 [8] | GI50 [9] | GI50 [10] | GI50 [11] | GI50 [12] | GI50 [13] | GI50 [14] | GI50 [15] | GI50 [16] | GI50 [17] | GI50 [18] | GI50 [19] | GI50 [20]
OCCSCc1ccccc1 | > 100 µM (inactive) | > 100 µM (inactive) | > 100 µM (inactive) | > 100 µM (inactive) | > 100 µM (inactive) | > 100 µM (inactive) | > 100 µM (inactive) | > 100 µM (inactive) | > 100 µM (inactive) | > 100 µM (inactive) | > 100 µM (inactive) | > 100 µM (inactive) | > 100 µM (inactive) | > 100 µM (inactive) | > 100 µM (inactive) | > 100 µM (inactive) | > 100 µM (inactive) | > 100 µM (inactive) | > 100 µM (inactive) | –
CCCCCCCCCCCCCCCC(=O)NCC(OCC)OCC | – | > 100 µM (inactive) | – | > 100 µM (inactive) | – | > 100 µM (inactive) | – | > 100 µM (inactive) | > 100 µM (inactive) | > 100 µM (inactive) | > 100 µM (inactive) | > 100 µM (inactive) | > 100 µM (inactive) | > 100 µM (inactive) | > 100 µM (inactive) | – | > 100 µM (inactive) | – | > 100 µM (inactive) | > 100 µM (inactive)
Cc1cn([C@H]2C[C@@H](N3C(=O)c4ccccc4C3=O)[C@@H](CO[Si](C)(C)C(C)(C)C)O2)c(=O)[nH]c1=O | 36.9 µM (inactive) | > 100 µM (inactive) | > 100 µM (inactive) | 57.1 µM (inactive) | 21.2 µM (inactive) | 30.6 µM (inactive) | 70.3 µM (inactive) | > 100 µM (inactive) | > 100 µM (inactive) | 27.5 µM (inactive) | > 100 µM (inactive) | 49.2 µM (inactive) | > 100 µM (inactive) | > 100 µM (inactive) | 20.4 µM (inactive) | > 100 µM (inactive) | 29.3 µM (inactive) | 43.3 µM (inactive) | 26.9 µM (inactive) | –
N#C/N=C1\NC(Cc2ccccc2)C(=O)N1CCc1c[nH]c2ccccc12 (stereo unspecified) | 18.4 µM (inactive) | 34.9 µM (inactive) | – | 37.1 µM (inactive) | – | 15.7 µM (inactive) | – | 43.6 µM (inactive) | 33.6 µM (inactive) | 29.6 µM (inactive) | 19.8 µM (inactive) | 20.6 µM (inactive) | 19.7 µM (inactive) | 35.2 µM (inactive) | 34.9 µM (inactive) | – | 37 µM (inactive) | – | 18.5 µM (inactive) | 33.9 µM (inactive)
CCOC(=O)c1nn2c(nc1=O)sc1ccc3ccccc3c12 | > 100 µM (inactive) | > 100 µM (inactive) | – | > 100 µM (inactive) | – | > 100 µM (inactive) | – | > 100 µM (inactive) | > 100 µM (inactive) | > 100 µM (inactive) | > 100 µM (inactive) | > 100 µM (inactive) | > 100 µM (inactive) | > 100 µM (inactive) | > 100 µM (inactive) | – | > 100 µM (inactive) | – | > 100 µM (inactive) | > 100 µM (inactive)
CCCCCCCCCCCCCCCCCCNc1ccn(C2OC(CO)C(OP(=O)(O)OCC(COP(=O)(O)OCC3OC(n4cc(F)c(NCCCCCCCCCCCCCCCCCC)nc4=O)CC3O)OC(=O)CCCCCCCCCCCCCCC)C2O)c(=O)n1 (stereo unspecified) | > 100 µM (inactive) | > 100 µM (inactive) | > 100 µM (inactive) | > 100 µM (inactive) | > 100 µM (inactive) | > 100 µM (inactive) | > 100 µM (inactive) | > 100 µM (inactive) | > 100 µM (inactive) | > 100 µM (inactive) | > 100 µM (inactive) | > 100 µM (inactive) | > 100 µM (inactive) | > 100 µM (inactive) | > 100 µM (inactive) | > 100 µM (inactive) | > 100 µM (inactive) | > 100 µM (inactive) | > 100 µM (inactive) | –
Cc1cc(C)nc(NS(=O)(=O)c2ccc(NC(=O)c3cccc4c(Nc5ccc(S(=O)(=O)N=C(N)N)cc5)c5ccc(Cl)cc5nc34)cc2)n1 | 15.6 µM (inactive) | – | – | – | – | 41 µM (inactive) | – | 20.2 µM (inactive) | 22.2 µM (inactive) | 17.2 µM (inactive) | 19.8 µM (inactive) | 17.4 µM (inactive) | – | 19.8 µM (inactive) | 33.1 µM (inactive) | > 100 µM (inactive) | 23.1 µM (inactive) | – | 17.7 µM (inactive) | 17.7 µM (inactive)
CC(=O)C(=Cc1ccc(C=C(C(C)=O)C(C)=O)cc1)C(C)=O | 0.244 µM (active) | 0.611 µM (active) | 1.63 µM (inactive) | 3.23 µM (inactive) | 3.58 µM (inactive) | 1.41 µM (inactive) | 1.97 µM (inactive) | 1.92 µM (inactive) | 2.01 µM (inactive) | 2.1 µM (inactive) | 4.81 µM (inactive) | 0.637 µM (active) | 1.7 µM (inactive) | 0.57 µM (active) | 1.2 µM (inactive) | 2.58 µM (inactive) | 2.1 µM (inactive) | 2.28 µM (inactive) | 2.17 µM (inactive) | –
O=C(CCc1nnc(S)[nH]1)Nc1cc(Cl)ccc1Cl | > 100 µM (inactive) | > 100 µM (inactive) | – | > 100 µM (inactive) | – | > 100 µM (inactive) | – | > 100 µM (inactive) | > 100 µM (inactive) | > 100 µM (inactive) | > 100 µM (inactive) | > 100 µM (inactive) | > 100 µM (inactive) | – | > 100 µM (inactive) | > 100 µM (inactive) | > 100 µM (inactive) | – | > 100 µM (inactive) | > 100 µM (inactive)
O=C(CC1Sc2ccccc2NC1=O)Nc1cc(Cl)ccc1Cl (stereo unspecified) | 29.8 µM (inactive) | > 100 µM (inactive) | – | > 100 µM (inactive) | – | > 100 µM (inactive) | – | > 100 µM (inactive) | > 100 µM (inactive) | 92.3 µM (inactive) | > 100 µM (inactive) | > 100 µM (inactive) | – | > 100 µM (inactive) | > 100 µM (inactive) | > 100 µM (inactive) | > 100 µM (inactive) | – | > 100 µM (inactive) | > 100 µM (inactive)
COC(=O)C(c1n[nH]c2ccccc12)C(C(=O)OC)c1n[nH]c2ccccc12 (stereo unspecified) | 22.7 µM (inactive) | 18.3 µM (inactive) | – | > 100 µM (inactive) | – | > 100 µM (inactive) | – | 54.7 µM (inactive) | 41.8 µM (inactive) | 17 µM (inactive) | > 100 µM (inactive) | 41.4 µM (inactive) | – | 68.2 µM (inactive) | 64.4 µM (inactive) | > 100 µM (inactive) | > 100 µM (inactive) | – | 44.9 µM (inactive) | 36.3 µM (inactive)
Nc1ccc(C(c2ccccc2)(c2ccccc2)c2ccccc2)cc1 | > 100 µM (inactive) | > 100 µM (inactive) | – | – | – | 99.3 µM (inactive) | – | 34.3 µM (inactive) | 64.6 µM (inactive) | 37 µM (inactive) | > 100 µM (inactive) | 62.1 µM (inactive) | > 100 µM (inactive) | 47.6 µM (inactive) | 45.5 µM (inactive) | > 100 µM (inactive) | – | – | 48.2 µM (inactive) | 95.9 µM (inactive)
CC(C)OC(=S)Nc1ccc(Cl)c(/C=N/OC(C)(C)C)c1 | 15.6 µM (inactive) | 16.6 µM (inactive) | 18 µM (inactive) | 17.9 µM (inactive) | 16.6 µM (inactive) | 19.3 µM (inactive) | 14.9 µM (inactive) | 18.2 µM (inactive) | 18.5 µM (inactive) | 15.5 µM (inactive) | 19.6 µM (inactive) | 15.4 µM (inactive) | 17.1 µM (inactive) | 17.1 µM (inactive) | 14.4 µM (inactive) | 12.6 µM (inactive) | 20.7 µM (inactive) | 11.9 µM (inactive) | 16.7 µM (inactive) | –
COc1ccc(C2C(Cl)C(=O)N2NC(=O)c2ccc(NC(C)=O)cc2)cc1 (stereo unspecified) | > 100 µM (inactive) | > 100 µM (inactive) | – | > 100 µM (inactive) | – | > 100 µM (inactive) | – | > 100 µM (inactive) | > 100 µM (inactive) | > 100 µM (inactive) | – | > 100 µM (inactive) | > 100 µM (inactive) | > 100 µM (inactive) | > 100 µM (inactive) | > 100 µM (inactive) | > 100 µM (inactive) | – | > 100 µM (inactive) | > 100 µM (inactive)
O=C1c2ccccc2-c2ccccc2C(=O)C1(Br)Br | 2.67 µM (inactive) | 3.8 µM (inactive) | – | 17.7 µM (inactive) | – | 14.2 µM (inactive) | – | 10.7 µM (inactive) | 14.1 µM (inactive) | 9.51 µM (inactive) | 18.2 µM (inactive) | 7.73 µM (inactive) | 8.24 µM (inactive) | 9.27 µM (inactive) | 15.4 µM (inactive) | 16.6 µM (inactive) | 17.7 µM (inactive) | – | 13 µM (inactive) | 6.75 µM (inactive)
COc1ccc(C[C@@H](C(=O)NCC(N)=O)N(C)C(=O)[C@@H]2CCCN2C(=O)[C@H](CC(C)C)NC(=O)C(C)NC(=O)OCc2ccccc2)cc1 (stereo partly specified) (Cbz-[ξA]LP[NMeY](Me)G-NH2) | > 100 µM (inactive) | > 100 µM (inactive) | > 100 µM (inactive) | > 100 µM (inactive) | > 100 µM (inactive) | > 100 µM (inactive) | > 100 µM (inactive) | > 100 µM (inactive) | > 100 µM (inactive) | > 100 µM (inactive) | > 100 µM (inactive) | > 100 µM (inactive) | > 100 µM (inactive) | > 100 µM (inactive) | > 100 µM (inactive) | > 100 µM (inactive) | > 100 µM (inactive) | > 100 µM (inactive) | > 100 µM (inactive) | –
